In one data set the test system is rat trachea rings. Kind of data set: Measurement of isometric force development: rat trachea ring constriction. Also on record: species or system Female Wistar rats. The note with it: for potential to constrict rat trachea rings (comparison in words): compared to closest prior art analogues of WO 2008/029371 or to Example 2; for % trachea constriction at 1 μM: compound at 1 μM, in % of the constriction induced by 50 mM KCl. On the procedure: Animals were obtained from RCC Ltd (Füllinsdorf, Switzerland). Female Wistar rats were euthanized by exposure to CO2. The tracheae were excised and rings from the lower segments were prepared. Rings of trachea were suspended in tissue baths (10 mL) containing Krebs-Henseleit buffer of the following composition (mM): NaCl 115; KCl 4.7; MgSO4 1.2; KH2PO4 1.5; CaCl2 2.5; NaHCO3 25; glucose 10. Bathing solution was maintained at 37° C. and aerated with 95% O2/5% CO2 (pH 7.4). A resting force of 2 g (20 mN) was applied to the ring preparation, and changes in force generation were measured using an isometric force recorder (EMKA Technologies Inc, Paris, France). Viability of rings was assessed by exposure to a depolarizing concentration of KCl (50 mM). Contraction of trachea was expressed as a percentage of the response to KCl.
All compounds were prepared as stock solutions of 0.3 mM in pure DMSO. Compounds were added to the bath (10 mL) in a volume of 33 μL to give a final bath concentration of DMSO of 0.33%.
Contraction of trachea was measured for 15 out of 30 exemplified compounds.

The subject of the next data set is circulating lymphocytes. Kind of data set: Assessment of in vivo efficacy: circulating lymphocytes after oral administration. Further details: species or system normotensive male Wistar rats. The note with it: Rattus norvegicus, Lymphocyte; 6 h after oral administration of 10 mg/kg, male Wistar rats, compared to vehicle group; read-out: Lymphocyte counts. On the procedure:
The efficacy of the compounds of Formula (I) is assessed by measuring the circulating lymphocytes after oral administration of 3 to 30 mg/kg of a compound of Formula (I) to normotensive male Wistar rats. The animals are housed in climate-controlled conditions with a 12 h-light/dark cycle, and have free access to normal rat chow and drinking water. Blood is collected before and 3, 6 and 24 h after drug administration. Full blood is subjected to hematology using Advia Hematology system (Bayer Diagnostics, Zurich, Switzerland).
All data are presented as mean±SEM. Statistical analyses are performed by analysis of variance (ANOVA) using Statistica (StatSoft) and the Student-Newman-Keuls procedure for multiple comparisons. The null hypothesis is rejected when p<0.05.
Lymphocyte counts 6 h after oral administration have been measured for 23 out of 30 exemplified compounds and are in the range of −42% to −80% with an average of −63%.

Another data set concerns the target human S1P1 receptor (Homo sapiens, UniProt P21453). Kind of data set: GTPγS assay to determine EC50 values. In kind it is biochemical. As to conditions: membranes of CHO cells expressing recombinant human S1P1 receptor; 35S-GTPγS binding. On the procedure: GTPγS binding assays are performed in 96 well microtiter plates (Nunc, 442587) in a final volume of 200 μl, using membrane preparations of CHO cells expressing recombinant human S1P1 receptor. Assay conditions are 20 mM Hepes (Fluka, 54461), 100 mM NaCl (Fluka, 71378), 5 mM MgCl2 (Fluka, 63064), 0.1% BSA (Calbiochem, 126609), 1 μM GDP (Sigma, G-7127), 2.5% DMSO (Fluka, 41644), […] ^35S-GTPγS (Amersham Biosciences, SJ1320). The pH is 7.4. Test compounds are dissolved and diluted in 100% DMSO and pre-incubated at room temperature for 30 min in 150 μl of the above assay buffer, in the absence of ^35S-GTPγS. After addition of 50 μl of ^35S-GTPγS, the assay is incubated for 1 h at rt. The assay is terminated by transfer of the reaction mixture to a Multiscreen plate (Millipore, MAHFC1H60) using a cell harvester from Packard Biosciences, and the plates are washed with ice-cold 10 mM Na2HPO4/NaH2PO4 (70%/30%), dried, sealed at the bottom and, after addition of 25 μl MicroScint20 (Packard Biosciences, order#6013621), sealed on the top. Membrane-bound ^35S-GTPγS is measured with a TopCount from Packard Biosciences.
EC50 is the concentration of agonist inducing 50% of the maximal specific ^35S-GTPγS binding. Specific binding is determined by subtracting non-specific binding from maximal binding. Maximal binding is the amount of cpm bound to the Multiscreen plate in the presence of 10 μM of S1P. Non-specific binding is the amount of binding in the absence of an agonist in the assay.
Agonistic activities (EC50 values) of all exemplified compounds have been measured.
In general terms: GTPγS resists hydrolysis and so accumulates on activated G proteins.

Molecules are shown by their SMILES. Bounds are passed on as bounds.

One may read the EC50 as the concentration at which the effect is half-maximal.

Chain of human S1P1 receptor (P21453 whole entry): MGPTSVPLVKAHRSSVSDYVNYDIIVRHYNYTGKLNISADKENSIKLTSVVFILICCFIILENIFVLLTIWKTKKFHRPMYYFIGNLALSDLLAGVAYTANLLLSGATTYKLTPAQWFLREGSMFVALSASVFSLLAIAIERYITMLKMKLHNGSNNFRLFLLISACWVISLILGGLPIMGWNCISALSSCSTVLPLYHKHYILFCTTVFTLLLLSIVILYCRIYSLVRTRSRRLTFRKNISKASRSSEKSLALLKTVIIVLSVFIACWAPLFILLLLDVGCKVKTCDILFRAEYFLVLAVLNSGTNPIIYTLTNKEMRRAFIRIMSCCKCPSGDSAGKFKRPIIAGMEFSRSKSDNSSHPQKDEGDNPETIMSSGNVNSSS

As for `CCc1cc(-c2noc(-c3cc(OC)nc(C4CCCC4)c3)n2)cc(C)c1OC[C@H](O)CO` [Example 3, (R)-3-{4-[5-(2-Cyclopentyl-6-methoxy-pyridin-4-yl)-[1,2,4]oxadiazol-3-yl]-2-ethyl-6-methyl-phenoxy}-propane-1,2-diol], in the data set with rat trachea rings, the “potential to constrict rat trachea rings (comparison in words)” value is on record as “same low potential to constrict rat trachea rings” and the “% trachea constriction at 1 μM” value is listed as under 5%. Moreover, the change in vivo at 10 mg/kg in the data set with circulating lymphocytes is -63%. For the same compound, the EC50 on human S1P1 receptor stood at 1 nM.

Take `CCc1cc(-c2noc(-c3cc(OC)nc(C4CCCCC4)c3)n2)cc(C)c1OC[C@@H](O)CO` [Example 4, (S)-3-{4-[5-(2-Cyclohexyl-6-methoxy-pyridin-4-yl)-[1,2,4]oxadiazol-3-yl]-2-ethyl-6-methyl-phenoxy}-propane-1,2-diol]: the “% trachea constriction at 1 μM” value in the data set on rat trachea rings is on record as under 5%. The change in vivo at 10 mg/kg in the data set with circulating lymphocytes was -61%. Further, the EC50 at human S1P1 receptor was 6.4 nM.

For `CCS(=O)(=O)Nc1c(C)cc(-c2noc(-c3cc(OC)nc(C4CCCC4)c3)n2)cc1Cl` [Example 5, Ethanesulfonic acid {2-chloro-4-[5-(2-cyclopentyl-6-methoxy-pyridin-4-yl)-[1,2,4]oxadiazol-3-yl]-6-methyl-phenyl}-amide], the change in vivo at 10 mg/kg in the data set on circulating lymphocytes was -66%. The EC50 at human S1P1 receptor was found to be 1.8 nM.

`CCc1cc(-c2noc(-c3cc(OC)nc(C4CCCC4)c3)n2)cc(C)c1OC[C@@H](O)CNC(=O)CO` [Example 7, N-((2S)-3-{4-[5-(2-Cyclopentyl-6-methoxy-pyridin-4-yl)-[1,2,4]oxadiazol-3-yl]-2-ethyl-6-methyl-phenoxy}-2-hydroxy-propyl)-2-hydroxy-acetamide]: in the data set with rat trachea rings, the “potential to constrict rat trachea rings (comparison in words)” value is “markedly reduced potential to constrict rat trachea rings” and the “% trachea constriction at 1 μM” value is on record as 50%. Also, in the data set with circulating lymphocytes, the change in vivo at 10 mg/kg is -65%. Also, the EC50 on human S1P1 receptor came to 0.6 nM.

Regarding `CCc1cc(-c2noc(-c3cc(OC)nc(C(CC)CC)c3)n2)cc(C)c1OC[C@@H](O)CN(C)C(=O)CO` [Example 9, N-[(2S)-3-(2-Ethyl-4-{5-[2-(1-ethyl-propyl)-6-methoxy-pyridin-4-yl]-[1,2,4]oxadiazol-3-yl}-6-methyl-phenoxy)-2-hydroxy-propyl]-2-hydroxy-N-methyl-acetamide], the EC50 on human S1P1 receptor is 17.8 nM.

In the case of `CCC(CC)c1cc(-c2nc(-c3cc(C)c(NS(C)(=O)=O)c(Cl)c3)no2)cc(OC)n1` [Example 11, N-(2-Chloro-4-{5-[2-(1-ethyl-propyl)-6-methoxy-pyridin-4-yl]-[1,2,4]oxadiazol-3-yl}-6-methyl-phenyl)-methanesulfonamide], in the data set with circulating lymphocytes, the change in vivo at 10 mg/kg was -74%. Besides, the EC50 at human S1P1 receptor was 1.2 nM.

On to `COc1cc(-c2nc(-c3cc(C)c(OC[C@@H](O)CNC(=O)CO)c(Cl)c3)no2)cc(C2CCCC2)n1` [Example 14, N-((2S)-3-{2-Chloro-4-[5-(2-cyclopentyl-6-methoxy-pyridin-4-yl)-[1,2,4]oxadiazol-3-yl]-6-methyl-phenoxy}-2-hydroxy-propyl)-2-hydroxy-acetamide], for which, in the data set with circulating lymphocytes, the change in vivo at 10 mg/kg is -70%. For the same compound, at human S1P1 receptor, the EC50 amounted to 1.1 nM.

In the case of `CCc1cc(-c2noc(-c3cc(CCC(C)C)nc(OC)c3)n2)cc(C)c1OC[C@@H](O)CO` [Example 15, (S)-3-(2-Ethyl-4-{5-[2-methoxy-6-(3-methyl-butyl)-pyridin-4-yl]-[1,2,4]oxadiazol-3-yl}-6-methyl-phenoxy)-propane-1,2-diol], at human S1P1 receptor, the EC50 is 7.5 nM.

For the compound `COc1cc(-c2nc(-c3cc(C)c(NS(C)(=O)=O)c(Cl)c3)no2)cc(C2CCCCC2)n1` [Example 17, N-{2-Chloro-4-[5-(2-cyclohexyl-6-methoxy-pyridin-4-yl)-[1,2,4]oxadiazol-3-yl]-6-methyl-phenyl}-methanesulfonamide], the change in vivo at 10 mg/kg with circulating lymphocytes was -80%. At human S1P1 receptor, the EC50 worked out at 10.2 nM.

`CCc1cc(-c2noc(-c3cc(OC)nc(C4CCCCC4)c3)n2)cc(C)c1NS(C)(=O)=O` [Example 20, N-{4-[5-(2-Cyclohexyl-6-methoxy-pyridin-4-yl)-[1,2,4]oxadiazol-3-yl]-2-ethyl-6-methyl-phenyl}-methanesulfonamide]: the change in vivo at 10 mg/kg in the data set on circulating lymphocytes is -67%. In addition, the 50% effective concentration (EC50) at human S1P1 receptor was 4.2 nM.

Turning to `CCc1cc(-c2nc(-c3cc(OC)nc(C4CCCC4)c3)no2)cc(C)c1OC[C@H](O)CO` [Example 22, (R)-3-{4-[3-(2-Cyclopentyl-6-methoxy-pyridin-4-yl)-[1,2,4]oxadiazol-5-yl]-2-ethyl-6-methyl-phenoxy}-propane-1,2-diol], the EC50 at human S1P1 receptor was 1 nM.

Regarding `CCc1cc(-c2nc(-c3cc(OC)nc(C4CCCC4)c3)no2)cc(C)c1OC[C@@H](O)CNC(=O)CO` [Example 23, N-((2S)-3-{4-[3-(2-Cyclopentyl-6-methoxy-pyridin-4-yl)-[1,2,4]oxadiazol-5-yl]-2-ethyl-6-methyl-phenoxy}-2-hydroxy-propyl)-2-hydroxy-acetamide], the change in vivo at 10 mg/kg with circulating lymphocytes is -56%. Moreover, the EC50 at human S1P1 receptor is 0.4 nM.

For the compound `CCc1cc(-c2nc(-c3cc(OC)nc(C4CCCC4)c3)no2)cc(C)c1OC[C@H](O)CNC(=O)CO` [Example 24, N-((2R)-3-{4-[3-(2-Cyclopentyl-6-methoxy-pyridin-4-yl)-[1,2,4]oxadiazol-5-yl]-2-ethyl-6-methyl-phenoxy}-2-hydroxy-propyl)-2-hydroxy-acetamide], the EC50 at human S1P1 receptor worked out at 1.6 nM.

With `CCc1cc(-c2nnc(-c3cc(OC)nc(C4CCCC4)c3)o2)cc(C)c1OC[C@H](O)CO` [Example 26, (R)-3-{4-[5-(2-Cyclopentyl-6-methoxy-pyridin-4-yl)-[1,3,4]oxadiazol-2-yl]-2-ethyl-6-methyl-phenoxy}-propane-1,2-diol], the EC50 on human S1P1 receptor is 4 nM.

On to `CCc1cc(-c2nnc(-c3cc(OC)nc(C4CCCC4)c3)o2)cc(C)c1OC[C@@H](O)CNC(=O)CO` [Example 27, N-((2S)-3-{4-[5-(2-Cyclopentyl-6-methoxy-pyridin-4-yl)-[1,3,4]oxadiazol-2-yl]-2-ethyl-6-methyl-phenoxy}-2-hydroxy-propyl)-2-hydroxy-acetamide], for which the change in vivo at 10 mg/kg with circulating lymphocytes was -54%. Further, the EC50 on human S1P1 receptor turned out to be 1.7 nM.

With `CCc1cc(-c2nnc(-c3cc(OC)nc(C4CCCC4)c3)o2)cc(C)c1OC[C@H](O)CNC(=O)CO` [Example 28, N-((2R)-3-{4-[5-(2-Cyclopentyl-6-methoxy-pyridin-4-yl)-[1,3,4]oxadiazol-2-yl]-2-ethyl-6-methyl-phenoxy}-2-hydroxy-propyl)-2-hydroxy-acetamide], the EC50 at human S1P1 receptor came to 2.3 nM.

Regarding `COc1cc(-c2nc(-c3cc(C)c(OC[C@@H](O)CO)c(Cl)c3)no2)cc(C2CCCCC2)n1` [Example 29, (S)-3-{2-Chloro-4-[5-(2-cyclohexyl-6-methoxy-pyridin-4-yl)-[1,2,4]oxadiazol-3-yl]-6-methyl-phenoxy}-propane-1,2-diol], in the data set with circulating lymphocytes, the change in vivo at 10 mg/kg is -62%. For the same compound, the concentration giving a half-maximal response (EC50) on human S1P1 receptor was found to be 4 nM.

For the compound `CCc1cc(-c2noc(-c3cc(CCC(C)C)nc(OC)c3)n2)cc(C)c1NS(C)(=O)=O` [Example 30, N-(2-Ethyl-4-(5-(2-isopentyl-6-methoxypyridin-4-yl)-1,2,4-oxadiazol-3-yl)-6-methylphenyl)methanesulfonamide], the EC50 on human S1P1 receptor was determined as 5.6 nM.

These data come from US8658675B2, “Pyridin-4-yl derivatives” (Actelion Pharmaceuticals Ltd., priority 2009, dated 2014).
